Laboratory results as given in patent US4264497A, “1,5-Benzothiazepine compounds” (Maruko Seiyaku Co., Ltd., priority 1978, dated 1981).
Structures can show the parent of a compound that is named as a salt.

Key:
[1] = system: mice; assay: Acute toxicity, overall comparison; format: in vivo; settings: in words, vs Glycopyrrolate
[2] = system: Pylorus Ligature induced ulcer; assay: Anti-ulcer activity, pylorus ligature ulcer, rats; format: in vivo; settings: s.c., 20 mg/kg
[3] = system: Indomethacin induced ulcer; assay: Anti-ulcer activity, indomethacin induced ulcer, rats; format: in vivo; settings: p.o.
[4] = system: mice; assay: Acute toxicity LD50, oral, in mice; settings: oral
[5] = system: Aspirin-Stress induced ulcer; assay: Anti-ulcer activity, aspirin-stress induced ulcer, mice; format: in vivo; settings: s.c., 5 mg/kg
[6] = system: Corediastasis; assay: Corediastasis (side effect), intraperitoneal; format: in vivo
[7] = system: Gastric secretion; assay: Gastric secretion inhibitory activity, observed in the anti-ulcer test using aspirin; format: in vivo; settings: observed simultaneously in anti-ulcer test using aspirin (rats, s.c., 5 mg/kg)
[8] = system: mice; assay: Acute toxicity LD50, intravenous, in mice; settings: intravenous
[9] = system: ulcer; assay: Anti-ulcer activity, overall statement; format: in vivo; settings: in words, vs Glycopyrrolate
[10] = system: Aspirin induced ulcer; assay: Anti-ulcer activity, aspirin induced ulcer, rats; format: in vivo; settings: s.c., 5 mg/kg
[11] = system: Stress induced ulcer; assay: Anti-ulcer activity, stress induced ulcer, mice; format: in vivo; settings: p.o., 5 mg/kg
[12] = Acute toxicity LD50, oral, in mice; settings: mouse, in vivo, po
[13] = system: Stress ulcer; assay: Anti-ulcer activity (Stress), relative to racemate; format: in vivo; settings: for Anti-ulcer Activity (Stress): relative, racemic mixture = 1
[14] = Acute toxicity LD50, intravenous, in mice; settings: mouse, in vivo, iv
[15] = system: Desalivation; assay: Desalivation activity (side effect), relative to racemate; format: in vivo; settings: for Desalivation Activity: relative, racemic mixture = 1, side effect
[16] = system: Anticholinergic activity; assay: Anticholinergic activity (relative to racemate); format: in vivo

SMILES	Anti-ulcer Activity, % Inhibitory [2]	Anti-ulcer Activity, % Inhibitory [5]	corediastasis ED20 ([6]; in vivo, ip)	Gastric secretion inhibitory activity, % Inhibitory [7]	Anti-ulcer Activity, % Inhibitory [10]	Anti-ulcer Activity, % Inhibitory [11]	LD50 [12]	Anti-ulcer Activity (Stress) [13]	LD50 [14]	Desalivation Activity [15]	also measured
CN1CCN(C[C@H]2C(=O)Nc3ccccc3S[C@H]2c2ccccc2)CC1 (relative stereo) [Compound A]	100.0%	51.8%	0.31 mg/kg	90%	100.0%	91.6%	–	–	–	–	degree of acute toxicity compared with Glycopyrrolate [1]: approximately the same degree of acute toxicity as Glycopyrrolate; Anti-ulcer Activity, % Inhibitory ([3]; A: 5 mg/kg): 99.0%; LD50 (in mice), Oral ([4]; mice, test compounds A-C): 650 mg/kg; LD50 (in mice), Intravenous ([8]; mice, test compounds A-C): 65 mg/kg; anti-ulcer activity compared with Glycopyrrolate [9]: equal or higher anti-ulcer activity
CN1CCN(C[C@H]2C(=O)Nc3ccccc3S[C@H]2c2ccccc2)CC1 (relative stereo) [Racemic Mixture, (±)-cis-2,3-dihydro-3-[(4-methylpiperazinyl)methyl]-2-phenyl-1,5-benzothiazepin-4(5H)-one]	–	–	–	–	–	–	650 mg/kg	1	65 mg/kg	1	–
CN1CCN(C[C@H]2C(=O)Nc3ccccc3S[C@H]2c2ccccc2)CC1 (single isomer, unassigned) [(-) Form, cis-(-)-2,3-dihydro-3-[(4-methylpiperazinyl)methyl]-2-phenyl-1,5-benzothiazepin-4(5H)-one]	–	–	–	–	–	–	870 mg/kg	4	160 mg/kg	0.6	acute toxicity by oral administration, degree relative to racemate ([4]; (-) form vs racemate): 3/4; anti-ulcer activity relative to the corresponding racemate ([13]; (-) form vs racemate): 4 times; acute toxicity by intravenous administration, degree relative to racemate ([8]; (-) form vs racemate): 2/5; anticholinergic activity relative to the corresponding racemate ([16]; (-) form vs racemate): 2 times; Anticholinergic Activity ([16]; relative, racemic mixture = 1): 2; desalivation activity as a side-effect, degree relative to racemate ([15]; (-) form vs racemate): about 1/2
C[N+]1(C)CCC(OC(=O)C(O)(c2ccccc2)C2CCCC2)C1 (centres unmarked) [Compound B, Glycopyrrolate]	100.0%	47.6%	0.037 mg/kg	90%	100.0%	81.9%	–	–	–	–	Anti-ulcer Activity, % Inhibitory ([3]; B: 20 mg/kg): 88.6%
CN1[C@@H]2CC[C@H]1CC(OC(=O)C(CO)c1ccccc1)C2 (some centres unmarked) [Compound C, Atropin Sulfate]	13.0%	48.0%	–	70%	79.3%	82.3%	–	–	–	–	corediastasis ED20 ([6]; intraperitoneal administration): 0.076 mg/kg
